Read-outs that look alike come from different tables or passages of the source.
Key:
[1] = Photostability under direct sunlight irradiation; assay type: physicochemical; conditions: 1 μM in 0.1 M sodium phosphate buffer pH 7.4, direct sunlight; versus DAF-1T, DAF-2T, DAF-4T, DAF-5T
Description: Photostability of the triazole derivatives produced by the method disclosed in U.S. Pat. No. 5,874,590 (DAF-1T, DAF-2T, DAF-4T and DAF-5T, the structures thereof are shown below) and DAF-FM T was tested by direct irradiation with sunlight. The dyes were each dissolved in 0.1 M sodium phosphate buffer (pH 7.4) at a concentration of 1 μM, and the solution was put into vials and exposed to direct sunlight under fine weather for a certain period of time. Samples were collected from the solutions, and fluorescence intensity was measured and compared with respective initial values.

[2] = pH characteristics of triazole derivatives (fluorescence intensity vs pH); assay type: physicochemical; conditions: 1 μM in sodium phosphate buffers; for pKa: sodium phosphate buffers of various pH, from fluorescence intensity vs pH
Description: Triazole derivatives prepared by the method disclosed in U.S. Pat. No. 5,874,590 (DAF-2T and DAF-5T, the structures thereof are shown below) and DAF-FM T were dissolved at 1 μM in sodium phosphate buffers adjusted to each of the pH values, and fluorescence intensity was measured. The excitation wavelength and fluorescence wavelength were 495-515 (nm) for DAF-2T, 505-520 (nm) for DAF-5T and 495-515 (nm) for DAF-FMT, respectively. […] As for DAF-FM T, a dissociable proton was not present in the triazole ring, and therefore the compound was not influenced by pKa and it gave a constant fluorescence intensity at pH 5.8 or higher.

[3] = test system: Bovine aorta endothelial cells; assay: Measurement of extracellularly produced nitrogen monoxide; assay type: cell-based; conditions: 7 μM in PBS(+), 37° C., Ex 500 nm, Em 515 nm, stimulation with A23187, control with inhibitor of nitrogen monoxide synthetase
Description: Bovine aorta endothelial cells were cultured, and the cells were removed with trypsin and collected by centrifugation, and then suspended in 2 ml of PBS(+) in which DAF-FM (7 μM) was dissolved. These cells were transferred to a cell for fluorescence measurement, and fluorescence intensity was measured (Ex.: 500 nm, Em.: 515 nm) at 37° C. with stirring. The cells were stimulated with a calcium ionophore A23187 during the measurement so that the cells generated nitrogen monoxide. As control experiments, an inhibitor of nitrogen monoxide synthetase was added after the above measurement, or alternatively, the measurement was performed in the presence of the inhibitor from the beginning.

[4] = read-out: pKa of the hydroxyl group
[5] = read-out: pKa of the proton of the triazole ring

Row | pH at which fluorescence intensity is constant ([2]; Ex/Em 495-515 nm) | pKa [2, 4] | pKa [2, 5] | Structure (SMILES) | photostability (fluorescence intensity compared with initial value) [1] | fluorescence intensity increase on nitrogen monoxide generation by the cells [3]
1 | ≥ 5.8 | 4.38 |  | Cn1nnc2c3c(ccc21)C1(OC3=O)c2cc(F)c(O)cc2Oc2cc(O)c(F)cc21 [DAF-FM T, 2″,7″-Difluoro-3″,6″-dihydroxy-spiro[1′-methyltriazolo[4′,5′:4,5]isobenzofuran-1(3H),9″-[9H]xanthen]-3-one] | higher photostability than the other triazole compounds | 
2 |  | 6.27 | 7.94 | O=C1OC2(c3ccc(O)cc3Oc3cc(O)ccc32)c2cc3nn[nH]c3cc21 [DAF-2T] |  | 
3 |  | 4.59 | 7.41 | O=C1OC2(c3cc(Cl)c(O)cc3Oc3cc(O)c(Cl)cc32)c2cc3nn[nH]c3cc21 [DAF-5T] |  | 
4 |  |  |  | CNc1ccc2c(c1N)C(=O)OC21c2cc(F)c(O)cc2Oc2cc(O)c(F)cc21 [DAF-FM, 4-Amino-5-(N-methylamino)-2′,7′-difluoro-3′,6′-dihydroxy-spiro[isobenzofuran-1(3H),9′-[9H]xanthen]-3-one] |  | increase of fluorescence intensity was caused by nitrogen monoxide

Reference: US7618997B2, “Diaminofluorescein derivatives” (Sekisui Medical Co., Ltd., priority 2000, dated 2009)
